Assay results reported in patent publication US6395909B1, “Substituted benzopyran derivatives and their use as anticonvulsants” (priority 1998, dated 2002).

What was measured:
[1] = molecular target: novel receptor obtainable from rat forebrain tissue; test: Radioligand binding assay, [3H]-Compound A displacement in rat forebrain tissue; conditions: competition with [3H]-Compound A (usually 20 nM)
Experimental: WO 92/22293 (SmithKline Beecham) discloses compounds having anti-convulsant activity, including inter alia the compound (3R, 4S)-6-acetyl-(4-fluorobenzoylamino)-3,4-dihydro-2,2-dimethyl-2H-1-benzopyran-3-ol (hereinafter referred to as Compound A). […] The affinity of test compounds to the novel receptor site is assessed as follows.
Whole forebrain tissue is obtained from rats. The tissue is first homogenised in buffer (usually 50 mM Tris/HCl, pH 7.4). The homogenised tissue is washed by centrifugation and resuspension in the same buffer, then stored at −70° C. until used.
To carry out the radioligand binding assay, aliquots of tissue prepared as above (usually at a concentration of 1-2 mg protein/ml) are mixed with aliquots of [3H]-Compound A dissolved in buffer. The final concentration of [3H]-Compound A in the mixture is usually 20 nM. The mixture is incubated at room temperature for 1 hour. [3H]-Compound A bound to the tissue is then separated from unbound [3H]-Compound A by filtration through Whatman GF/B glass fibre filters. The filters are then washed rapidly with ice-cold buffer. The amount of radioactivity bound to the tissue trapped on the filters is measured by addition of liquid scintillation cocktail to the filters followed by counting in a liquid scintillation counter. […]

[2] = test system: electrically-induced seizures; test: Maximal electroshock seizure threshold (MEST) test; assay type: in vivo; conditions: rat, intravenous route, solution in 20% PEG, 1 mg/kg, tested 30 min post dosing
Experimental: The maximal electroshock seizure threshold (MEST) test in rodents is particularly sensitive for detecting potential anticonvulsant properties^1. In this model, anticonvulsant agents elevate the threshold to electrically-induced seizures whilst proconvulsants lower the seizure threshold. Rats (naive male, Charles River, U.K. Sprague Dawley strain, 100-150 g) are randomly assigned to groups of 10-20 and dosed orally, intravenously or intraperitoneally at a dose volume of 1 ml/kg with various doses of compound (0.1-300 mg/kg) or vehicle. […] The mean current and standard error required to induce a tonic seizure in 50% (CC50) of the rats in a particular treatment group is determined by the ‘up and down’ method of Dixon and Mood (1948)^2. Statistical comparisons between vehicle- and drug-treated groups are made using the method of Litchfield and Wilcoxon (1949)^3. In control animals the CC50 is usually 20-30 mA. […] If a tonic convulsion does occur, then the current is decreased, and so on until all the animals in the group have been tested. The percentage increase or decrease in CC50 for each group compared to the control is calculated. Studies are carried out using a Hugo Sachs Electronik Constant Current Shock Generator with totally variable control of shock level from 0 to 300 mA and steps of 5-20 mA are usually used. […]

Row | pKi value [1] | melting point | SMILES | increase in seizure threshold relative to control [2]
1 | 7.35 | 179.4 °C | CC1(C)Oc2ccc(C(=O)CO)cc2[C@H](NC(=O)c2cc(F)cc(F)c2)[C@H]1O [Example 1, (3R,4S)-4-(3,5-difluorobenzamido)-3,4-dihydro-2,2-dimethyl-3-hydroxy-6-(2-hydroxyacetyl)-2H-1-benzopyran] | 317%
2 |  | 216 °C | CC1(C)Oc2ccc(C(=O)CO)cc2[C@H](NC(=O)c2ccc(F)cc2)[C@H]1O [Example 3, (3R,4S)-4-(4-fluorobenzamido)-3,4-dihydro-2,2-dimethyl-3-hydroxy-6-(2-hydroxyacetyl)-2H-1-benzopyran] | 
